Where “and” joins values, the source holds several entries; their conditions need not be identical. Identical values can stand only once.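 Briefly, cells in 96-well plates were exposed to five compound concentrations for 48 h, and endpoints were estimated by linear interpolation. The concentration for 50% growth inhibition is given as GI50. At the TGI there is no net growth.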

Holding throughout (assay): DTP human tumour cell line panel, 48 h
Test [1] has as its system COLO 205 colon.
Test [2] concerns MOLT-4 leukemia.
Test [3] concerns A549 NSCLC.
Test [4] relates to NCI-H23 lung.
Test [5] relates to 786-0 renal.
The subject of test [6] is SK-MEL-5 melanoma.
Test [7] relates to K-562 leukemia.
Test [8] deals with NCI/ADR-RES ovarian.
Test [9] relates to HL-60(TB) leukemia.
The subject of test [10] is PC-3 prostate.

For orientation: GI50 means the concentration giving 50% growth inhibition. One may read the TGI as the concentration giving total growth inhibition. Read a low TGI as more potent growth arrest. Turning to `Cc1cccc(Cl)c1NC(=O)c1cnc(Nc2cc(N3CCOCC3)cc(N3CCOCC3)c2)s1`, the GI50 in [1] was 0.122 µM; in test [2], over 4.96 µM; in test [3], 0.158 µM; in [4], over 9.24 µM; in test [5], 0.0183 µM; in test [6] it was over 8.96 µM. For the same compound, the GI50 is 0.00147 µM in test [7], 1.05 µM in [8], 9.98 µM in test [9] and 0.152 µM in test [10]. In addition, the TGI in test [1] is over 8.09 µM; in test [2], over 10 µM; in [3] it was over 10 µM; in test [4] it was over 10 µM; in [6], over 10 µM; in [7] it was over 10 µM. Also, the TGI in [8], in [9] and in test [10] was over 10 µM in each case.
Consider `Cc1cc([N+](=O)[O-])ccc1NS(=O)(=O)c1cc(Cl)ccc1Cl`, for which the GI50 in test [1] is 3.23 µM; in test [2] it was 4.03 µM; in [3], 2.91 µM; in test [4], 3 µM; in test [5], 3.03 µM; in test [6] it was 1.54 µM. Besides, the GI50 is 3.56 µM in test [7], 3.07 µM in [8], 3.13 µM in test [9] and 2.73 µM in test [10]. The TGI in test [1] was 12.3 µM; in test [2], 20.1 µM; in [3] it was over 51 µM; in test [4], 9.99 µM; in test [5], 22.6 µM; in test [6], 3.83 µM. The concentration for total growth inhibition (TGI) in [7] is over 100 µM; in test [8], 17.5 µM; in test [9] it was 12.8 µM; in test [10], 21.1 µM.
Take `COc1cc(F)cc([C@@H](CO)NC(=O)[C@@H](C)N2Cc3ccc(-c4nc(NC5CCOCC5)ncc4Cl)cc3C2=O)c1`: the GI50 in test [1] is under 0.01 µM; in [2], 7.42 µM; in [3], 0.566 µM; in test [4], under 0.0133 µM; in [5], 9.23 µM; in [6] it was 0.405 µM. Moreover, the GI50 is 0.536 µM in [7], 16.3 µM in [8], under 0.01 µM in test [9] and 9.69 µM in test [10]. Besides, the TGI was 2.37 µM in test [1]; 34.1 µM in test [2]; over 100 µM in [3]; 20.2 µM in test [4]; over 100 µM in test [5]; 14.8 µM in test [6]. The TGI in [7] is over 100 µM; in test [8] it was 78.2 µM; in [9] it was 0.859 µM; in test [10] it was 98.2 µM.
For the compound `COc1c2c(c(CC=C(C)C)c3oc(=O)c(-c4ccc(O)cc4)c(O)c13)OC(C)(C)C=C2`, the total growth inhibition concentration (TGI) in [1] is 40.2 µM; in test [2] it was 91 µM; in test [3], over 100 µM; in test [4], over 100 µM; in test [5], 71.3 µM; in test [6], 25.8 µM. Moreover, the TGI in [7] is over 100 µM; in test [8], 93.7 µM; in test [9], 51 µM; in [10] it was over 100 µM.
As to `C[C@@H](NC(=O)[C@@H](CC(=O)N1CCC(N2CCCCC2)CC1)N1C(=O)[C@@H](N2C(=O)OC[C@@H]2c2ccccc2)[C@H]1/C=C/c1cccc(Cl)c1)c1ccccc1`, the GI50 in [1] was 1.8 µM; in test [2], 3.2 µM; in [3], 4.34 µM; in [4] it was 3.85 µM; in test [5] it was 1.88 µM; in test [6], 1.85 µM. Further, the GI50 was 2.63 µM in test [7], 5.92 µM in [8], 2.21 µM in test [9] and 5.37 µM in [10]. The TGI came out at 4.24 µM in test [1]; 10.7 µM in test [2]; 15.6 µM in test [3]; 15.5 µM in [4]; 3.95 µM in test [5]; 3.34 µM in [6]. In addition, the TGI in test [7] was found to be 5.47 µM; in test [8] it was 24.8 µM; in [9] it was 4.87 µM; in [10], 18.9 µM.
For the compound `Cc1cc(Oc2cnc(=O)[nH]c2)cs1`, the TGI in [1], in test [2], in [3], in [4], in test [5] and in test [6] was over 100 µM each time. The total growth inhibition concentration (TGI) in test [7], in test [8], in test [9] and in test [10] was over 100 µM throughout.
Regarding `Clc1cccc(N2CCN(CCN3CCc4c([nH]c5ccccc45)C3c3cccnc3)CC2)c1` (stereo not drawn), the concentration for total growth inhibition (TGI) is over 84 µM in test [1]; over 100 µM in test [2]; over 100 µM in [3]; over 100 µM in [4]; over 73.5 µM in test [5]; over 100 µM in test [6]. In addition, the TGI in test [7] was over 65.4 µM; in test [8] it was over 100 µM; in test [9] it was over 100 µM; in [10], over 100 µM.
Consider `O=C1C(Cl)=C(Nc2cccc(O)c2)C(=O)N1Cc1ccc(Cl)cc1`, for which the GI50 in [1] was 3.38 µM; in test [2], 1.35 µM; in test [3], 5.22 µM; in test [4], 2.17 µM; in test [5], 1.63 µM; in [6] it was 5.69 µM. For the same compound, the GI50 in test [7] was 1.36 µM; in test [8], 1.58 µM; in test [9], 0.993 µM; in [10] it was 3.45 µM. For the same compound, the TGI in [1] was 20.8 µM; in test [2], over 100 µM; in test [3], 37.4 µM; in test [4] it was 8.31 µM; in test [5] it was 28.1 µM; in test [6] it was 21.1 µM. Further, the TGI in test [7] is 4.52 µM; in test [8], 10.2 µM; in [9] it was 11 µM; in [10] it was 86.9 µM.
With `Cn1c(/C=C(\C#N)c2cccc(C(F)(F)F)c2)nc2c(N3CCOCC3)nc(Cl)nc21`, the GI50 in [1] is 1.12 µM; in test [2], 0.381 µM; in [3], 1.31 µM; in test [4], 1.49 µM; in [5] it was 1.43 µM; in [6] it was 1.6 µM. Also, the GI50 was 0.344 µM in [7], 1.72 µM in test [8], 0.486 µM in [9] and 0.726 µM in test [10]. The concentration for total growth inhibition (TGI) in test [1] is 2.67 µM; in [2] it was 1.55 µM; in test [3] it was 3.3 µM; in test [4], 3.18 µM; in test [5], 2.82 µM; in test [6], 2.97 µM. The TGI in test [7] came out at 4.03 µM; in [8] it was 6.72 µM; in [9], 2.54 µM; in [10], 2.5 µM.
For `O=C1NC(=O)C(c2ccc(Cl)cc2)=C1Nc1ccc(Cl)c(C(=O)O)c1`, the GI50 in test [1], in test [2], in test [3], in test [4], in [5] and in test [6] was over 25 µM each time. The GI50 in [7], in test [8], in test [9] and in [10] was over 25 µM each time. Besides, the TGI in test [1], in test [2], in [3], in [4], in test [5] and in test [6] was over 25 µM each time. For the same compound, the TGI in test [7], in test [8], in [9] and in [10] was over 25 µM each time.
Turning to `C[n+]1c2ccccc2c(Nc2ccc(NS(=O)(=O)CCCCN=C(N)N)cc2)c2ccc(N)cc21`, the GI50 in test [1] is 1.67 µM; in test [2], 0.0212 µM; in [3] it was under 0.0128 µM; in [4], 0.152 µM; in [5] it was 3.8 µM; in test [6], 1.2 µM. For the same compound, the GI50 in test [7] was 2.6 µM; in [8] it was over 100 µM; in test [9], 1.64 µM; in test [10] it was 8.47 µM. Further, the TGI in [1] was over 100 µM; in [3], 16 µM; in test [4], 90.4 µM; in test [5], over 100 µM; in [6], 15.2 µM; in test [7], over 100 µM. The TGI was over 100 µM in test [8], over 56.1 µM in [9] and over 100 µM in [10].
Turning to `O=CC(Br)C(Br)c1ccccc1` (stereo not drawn), the GI50 in test [1] is 2.17 µM; in test [2], 0.904 µM; in test [3], 21.1 µM; in test [4] it was 3.85 µM; in test [5], 2.5 µM; in [6], 3.58 µM. Further, the GI50 in test [7] is 0.963 µM; in [8], 4.77 µM; in test [9], 0.462 µM; in [10] it was 2.39 µM. The TGI in [1] turned out to be 4.55 µM; in test [2] it was 3.89 µM; in test [3] it was 49.9 µM; in test [4] it was 24.8 µM; in test [5], 6.46 µM; in test [6], 13.8 µM. The TGI was determined as 6.84 µM in [7], 27.7 µM in test [8], 2.32 µM in test [9] and 6.75 µM in [10].
`CC(=O)OCc1ccc(O)c(C=O)c1`: the TGI in test [1], in test [2], in test [3], in test [4], in test [5] and in [6] was over 100 µM in each case. The TGI in [7], in test [8], in test [9] and in test [10] was over 100 µM in each case.
Turning to `NC(=S)N/N=C/c1ccc(O)cn1`, the GI50 was 35.8 µM and 55 µM and 8.96 µM in [1]; 6.5 µM and 3.19 µM and 1.36 µM in test [2]; 33.2 µM and 41.1 µM in test [3]; 3.48 µM in test [4]; 9.37 µM and 2.96 µM in test [5]; 11.3 µM and 8.06 µM in test [6]. Also, the GI50 in [7] is 12.3 µM and 7.25 µM; in [8], 3.09 µM; in test [9], 13.7 µM. Besides, the TGI in test [1] is > 1500 µM and 655 µM; in test [3], > 1500 µM and 584 µM; in test [5] it was 46 µM and > 408 µM; in [7] it was 55.2 µM and 439 µM; in test [9] it was 44.7 µM and 21 µM and 21.7 µM; in test [10] it was over 1500 µM.
For the compound `c1cncc(-c2nc3ccccc3s2)c1`, the GI50 is over 100 µM in test [1]; 73.7 µM in test [2]; over 100 µM in [3]; over 100 µM in [4]; over 100 µM in [5]; over 100 µM in test [6]. Also, the GI50 in test [7], in [8], in test [9] and in test [10] was over 100 µM in each case. In addition, the concentration for total growth inhibition (TGI) in test [1], in [2], in test [3], in test [4], in test [5] and in [6] was over 100 µM in each case. The TGI in test [7], in test [8], in test [9] and in test [10] was over 100 µM in each case.
Consider `CSc1n(Cc2ccc3ccccc3c2)c(C)c[n+]1Cc1ccc2ccccc2c1`, for which the GI50 was 0.352 µM in [1]; 1.11 µM in test [2]; 1.28 µM in test [3]; 0.385 µM in test [4]; 1.53 µM in test [5]; 0.389 µM in test [6]. Moreover, the GI50 in test [7] was 0.414 µM; in test [8] it was 12.8 µM; in test [9], 0.319 µM; in [10] it was 0.563 µM. Moreover, the concentration for total growth inhibition (TGI) is 1.34 µM in [1]; 3.01 µM in [2]; 2.73 µM in test [3]; 1.64 µM in test [4]; 2.97 µM in test [5]; 1.32 µM in test [6]. The TGI is 2.36 µM in test [7], 31.3 µM in [8], 1.12 µM in test [9] and 2.17 µM in [10].

These data come from PubChem BioAssay (NCI).
